Test in all cases: MIC determination by in vitro antifungal assay
Common to all, as to assay type: cell-based

For assay [1], the system named is Candida glabrata ATCC 2001 (H). The note with it: ATCC 2001 in text. In outline: (§1)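 Broth microdilution following CLSI M27-A3/M38-A2 with modifications, in RPMI 1640 buffered to pH 7.0 with 0.165 M MOPS. Yeast inoculum adjusted to OD600 0.12 and diluted 1:100. Compounds tested at 0.06–31.3 μg/mL by double dilution; incubation 48 h at 35° C.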
The subject of assay [2] is Candida krusei ATCC 6258 (I). The procedure, abridged: as §1
Assay [3] concerns Candida parapsilosis ATCC 22019 (J). In outline: as §1
The subject of assay [4] is Aspergillus flavus ATCC MYA-3631 (O). The note with it: strain O = A. flavus ATCC MYA-3631. The procedure, abridged: as §1
The subject of assay [5] is Aspergillus nidulans ATCC 38163 (P). The procedure, abridged:
as §1

For assay [6], the system named is Aspergillus terreus ATCC MYA-3633 (N). The note with it: strain N = A. terreus ATCC MYA-3633. In outline:
as §1

Assay [7] has as its system Cryptococcus neoformans ATCC MYA-895 (M). The note with it: strain M = C. neoformans ATCC MYA-895. In outline:
as §1

The mark [8] stands for this setting: Nakaseomyces glabratus, ATCC 2001 / ATCC 2004, strain H = C. glabrata ATCC 2004 (footnote), read-out: MIC.
The mark [9] stands for this setting: Pichia kudriavzevii, ATCC6258, strain I = C. krusei ATCC 6258, read-out: MIC.
Setting [10] is: Lodderomyces parapsilosis, ATCC22019, strain J = C. parapsilosis ATCC 22019, read-out: MIC.
The mark [11] stands for this setting: Aspergillus flavus, read-out: MIC.
Setting [12] is: Aspergillus nidulans, ATCC38163, strain P = A. nidulans ATCC 38163, read-out: MIC.
Setting [13] is: Aspergillus terreus, read-out: MIC.
The mark [14] stands for this setting: Cryptococcus neoformans, read-out: MIC.
Where [15] appears, read: strain H = C. glabrata ATCC 2004 (footnote).
[16] abbreviates: strain J = C. parapsilosis ATCC 22019.
The mark [17] stands for this setting: strain P = A. nidulans ATCC 38163.

Values after ≈ are worked out from the molar mass of the structure shown. Like-named read-outs stand apart in the source and are kept apart here.

In the case of `O=C(NNc1ccc(F)cc1F)c1nc(F)ccc1F` [Compound 8g], the MIC was 15.6 µg/mL (≈ 54.7 µM) in assay [1] (setting [8]); 0.49 µg/mL (≈ 1.72 µM) in assay [2] (setting [9]); 15.6 µg/mL (≈ 54.7 µM) in assay [3] (setting [10]); > 31.3 µg/mL in assay [4] (setting [11]); 0.49 µg/mL (≈ 1.72 µM) in assay [5] (setting [12]); 31.3 µg/mL (≈ 110 µM) in assay [6] (setting [13]). Besides, the MIC in assay [7] (setting [14]) worked out at 0.49 µg/mL (≈ 1.72 µM).

For `O=C(NNc1cccc(F)c1)c1cnccn1` [Compound 9a], the MIC in assay [1] (setting [15]) is reported as 7.8 μg/mL^−1; in assay [2] (strain I = C. krusei ATCC 6258), 0.49 μg/mL^−1; in assay [3] (setting [16]), 3.9 μg/mL^−1; in assay [4] it was 15.6 μg/mL^−1; in assay [5] (setting [17]), 0.98 μg/mL^−1; in assay [6], 0.98 μg/mL^−1. Also, in assay [7], the MIC was 0.12 μg/mL^−1.

For `O=C(NNc1cccc(Cl)c1)c1cnccn1` [Compound 9b], the MIC in assay [1] (setting [8]) is 3.9 µg/mL (≈ 15.7 µM); in assay [2] (setting [9]) it was 0.24 µg/mL (≈ 0.965 µM); in assay [3] (setting [10]), 1.95 µg/mL (≈ 7.84 µM); in assay [4] (setting [11]) it was > 31.3 µg/mL; in assay [5] (setting [12]), 0.98 µg/mL (≈ 3.94 µM); in assay [6] (setting [13]) it was 0.98 µg/mL (≈ 3.94 µM). Moreover, the MIC in assay [7] (setting [14]) is 0.24 µg/mL (≈ 0.965 µM).

On to `COc1cccc(NNC(=O)c2cnccn2)c1` [Compound 9c], for which the MIC in assay [1] (setting [8]) is 7.8 µg/mL (≈ 31.9 µM); in assay [2] (setting [9]) it was 0.49 µg/mL (≈ 2.01 µM); in assay [3] (setting [10]) it was 1.95 µg/mL (≈ 7.98 µM); in assay [4] (setting [11]) it was > 31.3 µg/mL; in assay [5] (setting [12]) it was 1.95 µg/mL (≈ 7.98 µM); in assay [6] (setting [13]) it was 1.95 µg/mL (≈ 7.98 µM). Moreover, the MIC in assay [7] (setting [14]) amounted to 0.49 µg/mL (≈ 2.01 µM).

Consider `O=C(NNc1ccc(F)cc1)c1cnccn1` [Compound 9d], for which the MIC in assay [1] (setting [8]) amounted to 3.9 µg/mL (≈ 16.8 µM); in assay [2] (setting [9]), 0.49 µg/mL (≈ 2.11 µM); in assay [3] (setting [10]), 3.9 µg/mL (≈ 16.8 µM); in assay [4] (setting [11]), 15.6 µg/mL (≈ 67.2 µM); in assay [5] (setting [12]) it was 0.49 µg/mL (≈ 2.11 µM); in assay [6] (setting [13]), 1.95 µg/mL (≈ 8.4 µM). Moreover, the MIC in assay [7] (setting [14]) is 0.24 µg/mL (≈ 1.03 µM).

On to `O=C(NNc1ccc(Cl)cc1)c1cnccn1` [Compound 9e], for which the MIC in assay [1] (setting [15]) is 1.95 μg/mL^−1; in assay [2] (strain I = C. krusei ATCC 6258) it was 3.9 μg/mL^−1; in assay [3] (setting [16]) it was 7.8 μg/mL^−1; in assay [4], >31.3 μg/mL^−1; in assay [5] (setting [17]) it was 1.95 μg/mL^−1; in assay [6] it was 7.8 μg/mL^−1. In assay [7], the MIC worked out at 0.98 μg/mL^−1.

Regarding `COc1ccc(NNC(=O)c2cnccn2)cc1` [Compound 9f], the MIC in assay [1] (setting [8]) is 0.98 µg/mL (≈ 4.01 µM); in assay [2] (setting [9]) it was 0.98 µg/mL (≈ 4.01 µM); in assay [3] (setting [10]), 3.9 µg/mL (≈ 16 µM); in assay [4] (setting [11]) it was > 31.3 µg/mL; in assay [5] (setting [12]), 0.98 µg/mL (≈ 4.01 µM); in assay [6] (setting [13]), > 31.3 µg/mL. In assay [7] (setting [14]), the MIC came to 0.98 µg/mL (≈ 4.01 µM).

As for `O=C(NNc1ccc(F)cc1F)c1cnccn1` [Compound 9g], the MIC in assay [1] (setting [8]) was 0.98 µg/mL (≈ 3.92 µM); in assay [2] (setting [9]), 0.24 µg/mL (≈ 0.959 µM); in assay [3] (setting [10]), 3.9 µg/mL (≈ 15.6 µM); in assay [4] (setting [11]), 7.8 µg/mL (≈ 31.2 µM); in assay [5] (setting [12]), 0.49 µg/mL (≈ 1.96 µM); in assay [6] (setting [13]), 0.98 µg/mL (≈ 3.92 µM). Besides, the MIC in assay [7] (setting [14]) is 0.24 µg/mL (≈ 0.959 µM).

In the case of `O=C(NNc1cc(F)ccc1F)c1cnccn1` [Compound 9h], the MIC in assay [1] (setting [8]) is 15.6 µg/mL (≈ 62.3 µM); in assay [2] (setting [9]) it was 0.49 µg/mL (≈ 1.96 µM); in assay [3] (setting [10]) it was 7.8 µg/mL (≈ 31.2 µM); in assay [4] (setting [11]), > 31.3 µg/mL; in assay [5] (setting [12]) it was 1.95 µg/mL (≈ 7.79 µM); in assay [6] (setting [13]), 1.95 µg/mL (≈ 7.79 µM). For the same molecule, the MIC in assay [7] (setting [14]) is 0.49 µg/mL (≈ 1.96 µM).

As for `O=C(NNc1cc(F)cc(F)c1)c1cnccn1` [Compound 9i], the MIC in assay [1] (setting [8]) came out at 7.8 µg/mL (≈ 31.2 µM); in assay [2] (setting [9]), 0.49 µg/mL (≈ 1.96 µM); in assay [3] (setting [10]) it was 3.9 µg/mL (≈ 15.6 µM); in assay [4] (setting [11]), 3.9 µg/mL (≈ 15.6 µM); in assay [5] (setting [12]) it was 1.95 µg/mL (≈ 7.79 µM); in assay [6] (setting [13]) it was 1.95 µg/mL (≈ 7.79 µM). Also, the MIC in assay [7] (setting [14]) came to 0.24 µg/mL (≈ 0.959 µM).

As to `O=C(NNc1cc(Cl)cc(Cl)c1)c1cnccn1` [Compound 9j], the MIC in assay [1] (setting [8]) was 15.6 µg/mL (≈ 55.1 µM); in assay [2] (setting [9]) it was 0.98 µg/mL (≈ 3.46 µM); in assay [3] (setting [10]), 3.9 µg/mL (≈ 13.8 µM); in assay [4] (setting [11]), > 31.3 µg/mL; in assay [5] (setting [12]), 7.8 µg/mL (≈ 27.6 µM); in assay [6] (setting [13]), 3.9 µg/mL (≈ 13.8 µM). In addition, the MIC in assay [7] (setting [14]) stood at 0.49 µg/mL (≈ 1.73 µM).

Source of the values: US20240425464A1, “Substituted Monohydrazides as Potent Antifungal Agents” (University of Kentucky Research Foundation, priority 2023, published 2024).
